{
  "source": "patent US11633434B2",
  "about": "“Topical kits and compositions and use thereof” (priority 2017, dated 2023)",
  "key": {"C. albicans [1]": {"system": "C. albicans", "test": "Antifungal activity of the formula, disk diffusion method", "type": "cell-based", "details": "Candida albicans, 48 h, read-out: diameter inhibition zones", "method": "The antifungal activity of the bacillus (10^8/ml) in the formula was determined using the disk diffusion method and was compared to that of empty formulation (without bacillus) and of ketoconazole 2% w/v in ethylene glycol (FIG. 11). A lawn of C. albicans (100 μl of 10^7 cells/ml) was spread on yeast extract-peptone-dextrose (YPD) agar petri dishes and tested solutions (10 μl ) were loaded on paper filter disks (6 mm in diameter) placed at the center of each dish and incubated at 37° C. for 48 h."}, "C. albicans [2]": {"system": "C. albicans", "details": "reported value; cited from earlier work"}},
  "note": "Starred links: 1 amine or outer side, 2 acyl side, 3 side chain; linkers in the order of their positions; H or OH if unused. Positions of bridges follow the written chain, without caps; N, C: chain ends. Non-standard residues stand in square brackets, D forms with d. Residues, ends and D or L forms follow the SMILES beside them. X1 = CC(C)CCCCCCCCC[C@H](CC(=O)[*:1])O[*:2]",
  "data": [
    {"molecule": "CC(=O)N1CCN(c2ccc(OCC3COC(Cn4ccnc4)(c4ccc(Cl)cc4Cl)O3)cc2)CC1", "note": "(centres unmarked) [ketoconazole]", "values": [
      {"measurement": "zone of inhibition at 2 % strength", "setting": "C. albicans [1]", "value": 14, "unit": "mm"}
    ]},
    {"molecule": "CC(C)CCCCCCCCC[C@@H]1CC(=O)N[C@@H](CCC(=O)O)C(=O)N[C@@H](CC(C)C)C(=O)N[C@H](CC(C)C)C(=O)N[C@@H](C(C)C)C(=O)N[C@@H](CC(=O)O)C(=O)N[C@H](CC(C)C)C(=O)N[C@@H](CC(C)C)C(=O)O1", "note": "[Surfactin C15] (EL[dL]VD[dL]L; linker N-C via X1)", "values": [
      {"measurement": "synergistic anti-fungal MIC", "setting": "C. albicans [2]", "value": 6.25, "unit": "µg/mL"}
    ]}
  ]
}
